Assay results taken from ChEMBL document CHEMBL5370585, “Exploration and Biological Evaluation of 1,3-Diamino-7H-pyrrol[3,2-f]quinazoline Derivatives as Dihydrofolate Reductase Inhibitors” (J Med Chem, 2023).
Converted amounts (≈) assume the structure as drawn. The source made the active and inactive calls. No cut-off for these calls is given here.

Legend:
Staphylococcus aureus [1] = assay: Antibacterial activity against Staphylococcus aureus ATCC 29213 incubated for 16 to 18 hrs by CLSI based broth dilution method; type: functional; settings: time 16-18 hrs
Staphylococcus aureus [2] = assay: Antibacterial activity against methicillin-resistant Staphylococcus aureus ATCC 43300 incubated for 16 to 18 hrs by CLSI based broth dilution method; type: functional; settings: time 16-18 hrs
[3] = system: Staphylococcus epidermidis; assay: Antibacterial activity against Staphylococcus epidermidis ATCC 12228 incubated for 16 to 18 hrs by CLSI based broth dilution method; type: functional; settings: time 16-18 hrs
Acinetobacter baumannii [4] = assay: Antibacterial activity against Acinetobacter baumannii ATCC 19606 incubated for 16 to 18 hrs by CLSI based broth dilution method; type: functional; settings: time 16-18 hrs
Enterococcus faecalis [5] = assay: Antibacterial activity against Enterococcus faecalis ATCC 29212 incubated for 16 to 18 hrs by CLSI based broth dilution method; type: functional; settings: time 16-18 hrs
Escherichia coli [6] = assay: Antibacterial activity against Escherichia coli ATCC 25922 incubated for 16 to 18 hrs by CLSI based broth dilution method; type: functional; settings: time 16-18 hrs
Staphylococcus aureus [7] = assay: Antibacterial activity against methicillin-sensitive Staphylococcus aureus 15-1 incubated for 16 to 18 hrs by CLSI based broth dilution method; type: functional; settings: time 16-18 hrs
Staphylococcus aureus [8] = assay: Antibacterial activity against methicillin-sensitive Staphylococcus aureus ATCC 29213 incubated for 16 to 18 hrs by CLSI based broth dilution method; type: functional; settings: time 16-18 hrs
Staphylococcus aureus [9] = assay: Antibacterial activity against methicillin-sensitive Staphylococcus aureus ATCC 25923 incubated for 16 to 18 hrs by CLSI based broth dilution method; type: functional; settings: time 16-18 hrs
Escherichia coli [10] = assay: Antibacterial activity against Escherichia coli ECO 15-1 incubated for 16 to 18 hrs by CLSI based broth dilution method; type: functional; settings: time 16-18 hrs
Klebsiella pneumoniae [11] = assay: Antibacterial activity against Klebsiella pneumoniae 15-1 assessed as reduction in microbial growth incubated for 16 to 18 hrs by CLSI based broth dilution method; type: functional; settings: time 16-18 hrs
Klebsiella pneumoniae [12] = assay: Antibacterial activity against Klebsiella pneumoniae ATCC 700603 assessed as reduction in microbial growth incubated for 16 to 18 hrs by CLSI based broth dilution method; type: functional; settings: time 16-18 hrs
Acinetobacter baumannii [13] = assay: Antibacterial activity against Acinetobacter baumannii ATCC 19606 assessed as reduction in microbial growth incubated for 16 to 18 hrs by CLSI based broth dilution method; type: functional; settings: time 16-18 hrs
Acinetobacter baumannii [14] = assay: Antibacterial activity against Acinetobacter baumannii 20-1 incubated for 16 to 18 hrs by CLSI based broth dilution method; type: functional; settings: time 16-18 hrs
Acinetobacter baumannii [15] = assay: Antibacterial activity against Acinetobacter baumannii 20-2 incubated for 16 to 18 hrs by CLSI based broth dilution method; type: functional; settings: time 16-18 hrs
Pseudomonas aeruginosa = assay: Antibacterial activity against Pseudomonas aeruginosa ATCC 27853 incubated for 16 to 18 hrs by CLSI based broth dilution method; type: functional; settings: time 16-18 hrs
[16] = molecular target: T1, Dihydrofolate reductase (Homo sapiens) (UniProt P00374); assay: Inhibition of human DHFR at 1 uM incubated for 10 mins in presence of NADPH by colorimetry based analysis relative to control
T1 sequence (whole entry): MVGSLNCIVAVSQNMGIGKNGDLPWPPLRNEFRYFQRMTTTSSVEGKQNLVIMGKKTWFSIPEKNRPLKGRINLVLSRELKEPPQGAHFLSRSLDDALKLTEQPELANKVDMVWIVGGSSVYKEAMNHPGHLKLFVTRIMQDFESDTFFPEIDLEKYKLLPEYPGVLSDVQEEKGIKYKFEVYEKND

MCF7 = assay: Cytotoxicity against human MCF7 cells measured after 72 hrs by MTT assay; type: functional, cell-based; settings: MCF7, 72 h
HGC-27 = assay: Cytotoxicity against human HGC-27 cells measured after 72 hrs by MTT assay; type: functional, cell-based; settings: HGC-27, 72 h
HCT-116 = assay: Cytotoxicity against human HCT-116 cells measured after 72 hrs by MTT assay; type: functional, cell-based; settings: HCT-116, 72 h
HepG2 = assay: Cytotoxicity against human HepG2 cells measured after 72 hrs by MTT assay; type: functional, cell-based; settings: HepG2, 72 h
Staphylococcus aureus [17] = assay: Antibacterial activity against methicillin-sensitive Staphylococcus aureus 15-2 incubated for 16 to 18 hrs by CLSI based broth dilution method; type: functional; settings: time 16-18 hrs
Staphylococcus aureus [18] = assay: Antibacterial activity against methicillin-resistant Staphylococcus aureus ATCC 33591 incubated for 16 to 18 hrs by CLSI based broth dilution method; type: functional; settings: time 16-18 hrs
Staphylococcus aureus [19] = assay: Antibacterial activity against vancomycin intermediate Staphylococcus aureus ATCC 700788 incubated for 16 to 18 hrs by CLSI based broth dilution method; type: functional; settings: time 16-18 hrs
Staphylococcus aureus [20] = assay: Antibacterial activity against vancomycin intermediate Staphylococcus aureus ATCC 700699 incubated for 16 to 18 hrs by CLSI based broth dilution method; type: functional; settings: time 16-18 hrs
Enterococcus faecalis [21] = assay: Antibacterial activity against Enterococcus faecalis EFA19-1 incubated for 16 to 18 hrs by CLSI based broth dilution method; type: functional; settings: time 16-18 hrs
Enterococcus faecalis [22] = assay: Antibacterial activity against Enterococcus faecalis EFA19-2 incubated for 16 to 18 hrs by CLSI based broth dilution method; type: functional; settings: time 16-18 hrs
Enterococcus = assay: Antibacterial activity against Vancomycin-resistant Enterococcus ATCC 51575 incubated for 16 to 18 hrs by CLSI based broth dilution method; type: functional; settings: time 16-18 hrs
Escherichia coli [23] = assay: Antibacterial activity against Escherichia coli ATCC BAA-2340 incubated for 16 to 18 hrs by CLSI based broth dilution method; type: functional; settings: time 16-18 hrs
[24] = Metabolic stability in mouse liver microsomes assessed as intrinsic clearance at 1 uM measured upto 60 mins in presence of NADPH by LC-MS/MS analysis; type: ADME, Microsome; settings: read-out: CLH
[25] = Metabolic stability in mouse liver microsomes assessed as hepatic clearance at 1 uM measured upto 60 mins in presence of NADPH by LC-MS/MS analysis; type: ADME, Microsome; settings: 1 h
Escherichia coli [26] = assay: Antibacterial activity against Escherichia coli ATCC 25922 assessed as inhibition of bacterial growth at upto 8 times MIC measured upto 28 hrs by time kill curve assay; type: functional, organism-based
Staphylococcus aureus [27] = assay: Antibacterial activity against methicillin-resistant Staphylococcus aureus ATCC 43300 assessed as inhibition of bacterial growth at upto 8 times MIC measured upto 28 hrs by time kill curve assay; type: functional, organism-based
Staphylococcus aureus [28] = assay: Antibacterial activity against Staphylococcus aureus ATCC 29213 incubated for 16 to 18 hrs in absence of human plasma by CLSI based broth dilution method; type: functional; settings: time 16-18 hrs
Staphylococcus aureus [29] = assay: Antibacterial activity against Staphylococcus aureus ATCC 29213 incubated for 16 to 18 hrs in presence of human plasma by CLSI based broth dilution method; type: functional; settings: time 16-18 hrs
Staphylococcus aureus [30] = assay: Antibacterial activity against methicillin-resistant Staphylococcus aureus ATCC 43300 incubated for 16 to 18 hrs in absence of human plasma by CLSI based broth dilution method; type: functional; settings: time 16-18 hrs
Staphylococcus aureus [31] = assay: Antibacterial activity against methicillin-resistant Staphylococcus aureus ATCC 43300 incubated for 16 to 18 hrs in presence of human plasma by CLSI based broth dilution method; type: functional; settings: time 16-18 hrs
Escherichia coli [32] = assay: Antibacterial activity against Escherichia coli ATCC 25922 incubated for 16 to 18 hrs in absence of human plasma by CLSI based broth dilution method; type: functional; settings: time 16-18 hrs
Escherichia coli [33] = assay: Antibacterial activity against Escherichia coli ATCC 25922 incubated for 16 to 18 hrs in presence of human plasma by CLSI based broth dilution method; type: functional; settings: time 16-18 hrs
Staphylococcus aureus [34] = assay: Drug resistance against methicillin-resistant Staphylococcus aureus ATCC 43300 assessed as increase in MIC measured after 10 passaging for 24 hrs; type: functional, organism-based
[35] = Toxicity in ICR mouse assessed as median lethal dose administered as single IP dose measured upto 8 days; settings: in vivo, time < 8 day
[36] = Toxicity in ip dosed ICR mouse assessed as animal death at high dose measured upto 8 days; type: organism-based; settings: in vivo, 192 h, time < 8 day

Structure (SMILES)	MIC (Staphylococcus aureus [1]) [µg/mL]	MIC (Staphylococcus aureus [2]) [µg/mL]	MIC [3] [µg/mL]	MIC (Acinetobacter baumannii [4]) [µg/mL]	MIC (Enterococcus faecalis [5]) [µg/mL]	MIC (Escherichia coli [6]) [µg/mL]	MIC (Staphylococcus aureus [7]) [µg/mL]	MIC (Staphylococcus aureus [8]) [µg/mL]	MIC (Staphylococcus aureus [9]) [µg/mL]	MIC (Escherichia coli [10]) [µg/mL]	MIC (Klebsiella pneumoniae [11]) [µg/mL]	MIC (Klebsiella pneumoniae [12]) [µg/mL]	MIC (Acinetobacter baumannii [13]) [µg/mL]	MIC (Acinetobacter baumannii [14]) [µg/mL]	MIC (Acinetobacter baumannii [15]) [µg/mL]	MIC (Pseudomonas aeruginosa) [µg/mL]	IC50 (MCF7) [nM]	IC50 (HGC-27) [nM]	IC50 (HCT-116) [nM]	IC50 (HepG2) [nM]	also measured
Nc1nc(N)c2c(ccc3c2ccn3Cc2ccc3ccccc3n2)n1	0.06 (≈ 0.176 µM)	0.03 (≈ 0.0881 µM)	0.25 (≈ 0.734 µM)	4 (≈ 11.8 µM)	0.06 (≈ 0.176 µM)	0.5 (≈ 1.47 µM)	≤ 0.03	0.06 (≈ 0.176 µM)	0.125 (≈ 0.367 µM)	> 64	4	2	4	> 64	2 (≈ 5.88 µM)	> 64	830	210	> 10000	270	inhibition [16]: 74.1%
Nc1nc(N)c2c(ccc3c2ccn3Cc2cccc3cccnc23)n1	0.25 (≈ 0.734 µM)	≤ 0.03	1 (≈ 2.94 µM)	2 (≈ 5.88 µM)	0.06 (≈ 0.176 µM)	0.5 (≈ 1.47 µM)	≤ 0.03	≤ 0.03	≤ 0.03	> 64	16	16	2	64 (≈ 188 µM)	2 (≈ 5.88 µM)	> 64	1450	1710	> 10000	1220	MIC (Staphylococcus aureus [17]): ≤ 0.03 µg/mL; MIC (Staphylococcus aureus [18]): ≤ 0.03 µg/mL; MIC (Staphylococcus aureus [19]): ≤ 0.03 µg/mL; MIC (Staphylococcus aureus [20]): 0.06 µg/mL (≈ 0.176 µM); MIC (Enterococcus faecalis [21]): ≤ 0.03 µg/mL; MIC (Enterococcus faecalis [22]): ≤ 0.03 µg/mL; MIC (Enterococcus): ≤ 0.03 µg/mL; MIC (Escherichia coli [23]): > 64 µg/mL; inhibition [16]: 38.7%
COc1ccc2c(c1)[C@]13CCCC[C@@H]1[C@H](C2)N(C)CC3 [DEXTROMETHORPHAN]	–	–	–	–	–	–	–	–	–	–	–	–	–	–	–	–	–	–	–	–	microsomal CLint at 1 µM [24]: 135 µL/min/mg; CLH [25]: 77 mL/min/kg
Nc1nc(N)c2c(ccc3c2ccn3Cc2cccc3ccccc23)n1	0.125 (≈ 0.368 µM)	0.06 (≈ 0.177 µM)	1 (≈ 2.95 µM)	1 (≈ 2.95 µM)	0.125 (≈ 0.368 µM)	1 (≈ 2.95 µM)	≤ 0.03	≤ 0.03	≤ 0.03	> 64	4	4	1	32 (≈ 94.3 µM)	2 (≈ 5.89 µM)	> 64	460	1010	> 10000	520	MIC (Staphylococcus aureus [17]): ≤ 0.03 µg/mL; MIC (Staphylococcus aureus [18]): ≤ 0.03 µg/mL; MIC (Staphylococcus aureus [19]): ≤ 0.03 µg/mL; MIC (Staphylococcus aureus [20]): 0.06 µg/mL (≈ 0.177 µM); MIC (Enterococcus faecalis [21]): ≤ 0.03 µg/mL; MIC (Enterococcus faecalis [22]): ≤ 0.03 µg/mL; MIC (Enterococcus): ≤ 0.03 µg/mL; MIC (Escherichia coli [23]): > 64 µg/mL; inhibition [16]: 83.9%
Nc1nc(N)c2c(ccc3c2ccn3Cc2cccc3scnc23)n1	0.008 (≈ 0.0231 µM)	0.004 (≈ 0.0115 µM)	≤ 0.004	0.5 (≈ 1.44 µM)	≤ 0.004	0.03 (≈ 0.0866 µM)	–	–	–	–	–	–	–	–	–	–	110	11	32	170	Activity (Escherichia coli [26]): Active; Activity (Staphylococcus aureus [27]): Active; MIC (Staphylococcus aureus [28]): 0.008 µg/mL (≈ 0.0231 µM); MIC (Staphylococcus aureus [29]): 0.25 µg/mL; MIC (Staphylococcus aureus [30]): ≤ 0.004 µg/mL; MIC (Staphylococcus aureus [31]): 0.25 µg/mL; MIC (Escherichia coli [32]): 0.03 µg/mL (≈ 0.0866 µM); MIC (Escherichia coli [33]): 0.25 µg/mL; Activity (Staphylococcus aureus [34]): Active; LD50 at 192 h [35]: 88.9 mg/kg; Activity [36]: Toxic
